One assay addresses ROCK1 (Homo sapiens, UniProt Q13464). In words: ROCK assay (Caliper LabChip peptide phosphorylation), ROCK1. In kind it is biochemical. The note with it: 5 μM ATP, 1.5 μM peptide substrate. The protocol: The effectiveness of compounds of the present invention as ROCK inhibitors can be determined in a 30 μL assay containing 20 mM HEPES, pH 7.5, 20 mM MgCl2, 0.015% Brij-35, 4 mM DTT, 5 μM ATP and 1.5 μM peptide substrate (FITC-AHA-[…]-OH). Compounds were dissolved in DMSO so that the final concentration of DMSO was <2%, and the reaction was initiated with Rho kinase variants. After incubation, the reaction was terminated by the addition of EDTA and the phosphorylated and non-phosphorylated peptides separated using a LabChip 3000 Reader (Caliper Life Sciences). […] Compounds were tested in dose-response format, and the inhibition of kinase activity was calculated at each concentration of compound. The inhibition data were fit using a curve-fitting program to determine the IC50; i.e., the concentration of compound required to inhibit 50% of kinase activity.”
Representative Examples were tested in the ROCK assay described above and found having ROCK inhibitory activity. A range of ROCK inhibitory activity (IC50 values) of ≦50 μM (50000 nM) was observed. Table A below lists the ROCK IC50 values measured for the following examples.

The test system of assay [1] is neointimal formation in rats. The note with it: model similar to balloon injury; cited from earlier work.
Assay [2] concerns IL-1 beta-induced coronary stenosis. The conditions noted are these: porcine, long term treatment; cited from earlier work.

Molecules are shown by their SMILES. Some results are limits rather than exact numbers.

Usually IC50 stands for the midpoint of a concentration-inhibition curve. Read a low IC50 as inhibition by little substance.

Chain of ROCK1 (Q13464 whole entry, species assumed): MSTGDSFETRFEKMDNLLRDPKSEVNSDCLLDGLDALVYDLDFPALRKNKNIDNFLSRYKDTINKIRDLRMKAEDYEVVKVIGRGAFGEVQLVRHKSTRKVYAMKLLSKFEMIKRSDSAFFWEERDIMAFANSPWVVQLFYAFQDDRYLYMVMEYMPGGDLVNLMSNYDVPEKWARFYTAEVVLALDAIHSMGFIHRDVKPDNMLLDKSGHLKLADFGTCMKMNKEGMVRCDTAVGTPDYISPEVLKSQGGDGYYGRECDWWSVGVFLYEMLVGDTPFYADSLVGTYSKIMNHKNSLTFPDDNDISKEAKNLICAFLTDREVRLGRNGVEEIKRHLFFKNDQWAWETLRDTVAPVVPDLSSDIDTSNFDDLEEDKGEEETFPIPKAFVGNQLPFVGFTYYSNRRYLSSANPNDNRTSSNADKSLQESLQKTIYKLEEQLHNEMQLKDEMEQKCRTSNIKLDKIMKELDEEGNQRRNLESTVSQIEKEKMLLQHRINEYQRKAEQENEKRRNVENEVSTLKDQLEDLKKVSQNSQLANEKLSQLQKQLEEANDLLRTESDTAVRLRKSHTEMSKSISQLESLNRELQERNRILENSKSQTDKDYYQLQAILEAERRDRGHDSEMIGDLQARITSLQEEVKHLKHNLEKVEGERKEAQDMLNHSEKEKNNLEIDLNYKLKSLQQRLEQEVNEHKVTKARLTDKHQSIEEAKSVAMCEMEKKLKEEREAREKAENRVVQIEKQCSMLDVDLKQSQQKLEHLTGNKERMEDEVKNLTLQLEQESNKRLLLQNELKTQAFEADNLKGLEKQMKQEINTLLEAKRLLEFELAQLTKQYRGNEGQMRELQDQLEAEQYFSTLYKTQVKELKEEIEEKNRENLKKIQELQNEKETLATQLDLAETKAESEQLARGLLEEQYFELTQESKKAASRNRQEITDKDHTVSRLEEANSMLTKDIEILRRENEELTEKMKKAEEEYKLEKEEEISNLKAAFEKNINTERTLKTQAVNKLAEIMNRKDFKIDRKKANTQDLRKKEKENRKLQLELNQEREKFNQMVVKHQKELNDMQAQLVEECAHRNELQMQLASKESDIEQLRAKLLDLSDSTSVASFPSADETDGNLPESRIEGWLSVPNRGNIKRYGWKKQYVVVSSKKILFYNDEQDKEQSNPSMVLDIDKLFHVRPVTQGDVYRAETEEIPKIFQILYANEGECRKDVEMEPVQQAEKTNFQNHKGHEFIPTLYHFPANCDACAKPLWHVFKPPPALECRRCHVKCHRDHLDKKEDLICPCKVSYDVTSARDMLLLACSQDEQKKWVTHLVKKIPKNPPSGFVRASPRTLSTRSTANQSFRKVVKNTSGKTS

In turn, `O=C(Oc1ccc(-c2n[nH]c(=O)c3ccccc23)cc1)N1CCC(c2ccccc2)C1` (stereo not shown) [Example 69, 4-(4-oxo-3,4-dihydrophthalazin-1-yl)phenyl 3-phenylpyrrolidine-1-carboxylate] returned an IC50 on ROCK1 not below 50 µM.

Regarding `C[C@@H](N)[C@H]1CC[C@H](C(=O)Nc2ccncc2)CC1` [Example Y-27632, Y-27632], the neointimal formation entry in assay [1] was “inhibited neointimal formation”.

For the compound `O=S(=O)(c1cccc2cnccc12)N1CCCNCC1` [fasudil], in assay [2], the coronary constrictive remodeling result is recorded as “promote a regression of coronary constrictive remodeling” and the coronary stenosis result is listed as “progressively reduce coronary stenosis”.

These data come from patent US20160090364A1, “PHTHALAZINONES AND ISOQUINOLINONES AS ROCK INHIBITORS” (BRISTOL-MYERS SQUIBB COMPANY, priority 2013, published 2016).
